The nature of data set [1]: Compound was evaluated for inhibition of cellular release of TNF-alpha from MonoMac-6 cells. The class given is functional, cell-based. The settings on record: Homo sapiens, MONO-MAC-6.
Data set [2] has as its target T1, Stromelysin-1 (Homo sapiens, UniProt P08254). As to the kind of experiment: Inhibition of matrix metalloprotease-3 (MMP3).
Data set [3] concerns the target Matrix metalloproteinase-9 (Homo sapiens, UniProt P14780). The data set can be described thus: Inhibition of Matrix metalloprotease-9.
The target in a further data set is T2, Interstitial collagenase (Homo sapiens, UniProt P03956).
T2 sequence (P03956 whole entry): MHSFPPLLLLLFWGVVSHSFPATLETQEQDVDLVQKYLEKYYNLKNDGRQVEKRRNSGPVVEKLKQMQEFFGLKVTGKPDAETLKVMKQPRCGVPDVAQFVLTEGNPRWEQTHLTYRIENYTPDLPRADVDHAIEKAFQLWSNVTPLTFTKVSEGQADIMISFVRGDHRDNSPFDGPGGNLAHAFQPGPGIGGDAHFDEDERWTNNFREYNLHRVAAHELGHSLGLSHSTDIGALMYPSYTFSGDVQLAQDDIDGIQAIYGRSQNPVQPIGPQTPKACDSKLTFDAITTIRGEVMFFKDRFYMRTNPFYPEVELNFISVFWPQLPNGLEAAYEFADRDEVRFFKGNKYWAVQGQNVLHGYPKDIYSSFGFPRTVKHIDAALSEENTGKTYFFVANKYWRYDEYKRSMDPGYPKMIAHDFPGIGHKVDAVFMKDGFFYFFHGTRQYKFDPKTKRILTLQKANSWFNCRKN
The data set can be described thus: Inhibition of Matrix metalloprotease-1.

Data set [4] concerns the target T3, Disintegrin and metalloproteinase domain-containing protein 17 (Homo sapiens, UniProt P78536). As to the kind of experiment: Inhibition of Tumor necrosis factor alpha converting enzyme.
For data set [5], the system named is Mus musculus. As to the kind of experiment: In vivo inhibition of Murine Lipopolysaccharide induced plasma TNF on peroral administration of the compound. More on the design: concentration or dose not given beside the values. The class given is functional.
The target in data set [6] is T3, Disintegrin and metalloproteinase domain-containing protein 17. The data set can be described thus: Inhibition of TNF-alpha converting enzyme (TACE).
The target of data set [7] is T1, Stromelysin-1. The data set can be described thus: Inhibition of Matrix metalloprotease-3.
Data set [8] relates to Mus musculus. As to the kind of experiment: In vivo inhibition of Murine Lipopolysaccharide induced plasma TNF on peroral administration of the compound; IA means Inactive. It is filed as functional, organism-based.
Data set [9] relates to Mus musculus. As to the kind of experiment: Percent inhibition of Murine Lipopolysaccharide induced plasma TNF on peroral administration of the compound. It is filed as functional.
Data set [10] can be described thus: Area under curve was determined for the compound by intravenous administration of 1.2 mg/kg in dog. The settings on record: in vivo. Further details: dose 1.2 mg/kg, route intravenous. It is filed as ADME, organism-based, Canis lupus familiaris.
Data set [11] is described as follows: Bioavailability by intravenous administration of 1.2 mg/kg in dog. The class given is ADME, organism-based, Canis lupus familiaris. As to conditions: in vivo.
Data set [12] in a line: Bioavailability by intravenous administration of 3.4 mg/kg in rat. The class given is ADME, organism-based. The settings on record: in vivo.
Data set [13] in a line: Area under curve was determined for the compound by intravenous administration of 3.4 mg/kg in rat. The class given is ADME, organism-based. More on the design: dose 3.4 mg/kg, route intravenous. The settings on record: in vivo.
A short description of data set [14]: Clearance by intravenous administration of 3.4 mg/kg in rat. It is filed as ADME, organism-based. More on the design: dose 3.4 mg/kg, route intravenous. As to conditions: in vivo.
The nature of data set [15]: Clearance by intravenous administration of 1.2 mg/kg in dog. The class given is ADME, organism-based, Canis lupus familiaris. More on the design: dose 1.2 mg/kg, route intravenous. The settings on record: in vivo.
Data set [16] in a line: Half life by intravenous administration of 1.2 mg/kg in dog. The class given is ADME, organism-based, Canis lupus familiaris. Further details: dose 1.2 mg/kg, route intravenous. As to conditions: in vivo.
A short description of data set [17]: Maximum concentration by intravenous administration of 1.2 mg/kg in dog. The class given is ADME, organism-based, Canis lupus familiaris. Further details: dose 1.2 mg/kg, route intravenous. As to conditions: in vivo.
The nature of data set [18]: Maximum concentration by intravenous administration of 3.4 mg/kg in rat. As to conditions: in vivo. More on the design: dose 3.4 mg/kg, route intravenous. It is filed as ADME, organism-based.
Data set [19] is described as follows: Half life by intravenous administration of 3.4 mg/kg in rat. It is filed as ADME, organism-based. More on the design: dose 3.4 mg/kg, route intravenous. As to conditions: in vivo.
The subject of data set [20] is Mus musculus. As to the kind of experiment: In vivo inhibition of Murine Lipopolysaccharide induced plasma TNF on peroral administration of the compound; IA means inactive. The class given is functional, organism-based.

Calls of active or inactive are those of the source. The rule behind the calls is not given here.

T3 sequence (P78536 whole entry, the tested form may be a part): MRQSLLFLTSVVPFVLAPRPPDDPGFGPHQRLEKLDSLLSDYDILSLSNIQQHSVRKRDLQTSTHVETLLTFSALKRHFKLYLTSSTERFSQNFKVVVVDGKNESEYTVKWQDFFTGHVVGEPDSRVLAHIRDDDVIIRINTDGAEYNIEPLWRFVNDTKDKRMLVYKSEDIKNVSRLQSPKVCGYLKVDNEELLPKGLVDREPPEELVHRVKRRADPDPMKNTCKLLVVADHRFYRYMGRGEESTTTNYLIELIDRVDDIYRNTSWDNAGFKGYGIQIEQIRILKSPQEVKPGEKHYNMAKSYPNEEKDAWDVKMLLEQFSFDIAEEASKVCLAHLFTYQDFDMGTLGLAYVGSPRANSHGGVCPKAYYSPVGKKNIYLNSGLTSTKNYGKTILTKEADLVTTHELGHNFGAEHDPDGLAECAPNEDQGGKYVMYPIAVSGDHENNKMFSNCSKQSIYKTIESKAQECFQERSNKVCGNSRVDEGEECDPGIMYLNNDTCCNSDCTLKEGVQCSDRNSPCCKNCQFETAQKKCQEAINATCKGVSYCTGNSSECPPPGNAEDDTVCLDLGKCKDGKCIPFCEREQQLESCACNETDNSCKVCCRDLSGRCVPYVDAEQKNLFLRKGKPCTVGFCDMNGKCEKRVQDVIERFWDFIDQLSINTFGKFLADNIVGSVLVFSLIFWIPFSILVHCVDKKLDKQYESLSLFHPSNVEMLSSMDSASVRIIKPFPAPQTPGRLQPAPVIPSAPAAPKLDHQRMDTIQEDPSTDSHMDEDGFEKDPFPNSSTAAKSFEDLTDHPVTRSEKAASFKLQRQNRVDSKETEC
Sequence of Matrix metalloproteinase-9 (P14780 whole entry): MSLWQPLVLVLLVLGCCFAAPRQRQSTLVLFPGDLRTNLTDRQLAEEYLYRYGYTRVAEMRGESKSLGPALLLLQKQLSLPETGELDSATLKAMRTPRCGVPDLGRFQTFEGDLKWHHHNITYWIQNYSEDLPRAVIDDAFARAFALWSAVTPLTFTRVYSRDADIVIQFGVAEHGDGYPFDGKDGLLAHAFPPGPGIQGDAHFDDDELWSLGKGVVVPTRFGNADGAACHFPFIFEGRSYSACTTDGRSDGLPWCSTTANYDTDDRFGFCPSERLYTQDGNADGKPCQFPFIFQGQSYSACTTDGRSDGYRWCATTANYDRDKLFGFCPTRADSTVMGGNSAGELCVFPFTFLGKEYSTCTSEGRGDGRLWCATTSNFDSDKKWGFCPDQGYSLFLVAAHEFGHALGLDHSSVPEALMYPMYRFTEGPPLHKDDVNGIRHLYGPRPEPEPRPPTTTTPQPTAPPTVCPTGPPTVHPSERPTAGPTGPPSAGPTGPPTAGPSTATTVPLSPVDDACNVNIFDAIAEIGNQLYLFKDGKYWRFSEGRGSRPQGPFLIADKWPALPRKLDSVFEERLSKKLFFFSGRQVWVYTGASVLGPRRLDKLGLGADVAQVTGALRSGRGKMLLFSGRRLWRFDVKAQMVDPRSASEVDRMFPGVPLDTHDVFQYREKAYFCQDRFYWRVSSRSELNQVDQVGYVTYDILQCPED
T1 sequence (P08254 whole entry): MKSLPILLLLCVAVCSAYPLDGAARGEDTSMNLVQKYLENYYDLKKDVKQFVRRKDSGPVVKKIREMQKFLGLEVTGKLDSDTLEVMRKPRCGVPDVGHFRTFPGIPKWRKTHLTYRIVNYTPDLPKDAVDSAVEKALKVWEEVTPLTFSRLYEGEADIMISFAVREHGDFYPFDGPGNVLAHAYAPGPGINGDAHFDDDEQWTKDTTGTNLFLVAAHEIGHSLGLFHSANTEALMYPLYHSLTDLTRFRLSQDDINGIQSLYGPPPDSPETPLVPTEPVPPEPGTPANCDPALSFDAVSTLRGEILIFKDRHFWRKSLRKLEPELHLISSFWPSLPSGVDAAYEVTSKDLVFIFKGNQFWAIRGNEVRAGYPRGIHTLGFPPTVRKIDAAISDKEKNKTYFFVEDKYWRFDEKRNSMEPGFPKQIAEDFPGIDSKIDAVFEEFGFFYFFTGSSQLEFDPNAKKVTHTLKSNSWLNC

Turning to `CCC(C)[C@H](NC(=O)[C@H](CC(C)C)[C@H](CC)N(O)C=O)C(=O)Nc1ccccn1` (stereo not given in full), in data set [1], the IC50 (usually the midpoint of a concentration-inhibition curve) came to 1410 nM. Further, the Ki (commonly a dissociation constant, usually derived from enzyme kinetics or from competition with a known ligand) was determined as 38 nM on Stromelysin-1 [2], 73 nM in [3], 55 nM on Interstitial collagenase and 31 nM in [4]. In the data set on Mus musculus [5], the Inhibition – broadly, the percentage by which the read-out fell short of the control – is given as 62%.
For the compound `CNC(=O)[C@@H](NC(=O)[C@@H](CC(=O)NO)CC(C)C)C(C)(C)C` [RO-319790], in data set [1], inhibition was half-maximal at 5720 nM (IC50). Besides, the Ki in [3] worked out at 2 nM; at Interstitial collagenase, 2 nM; in data set [6] it was 87 nM; on Stromelysin-1 [7], 310 nM. Further, the inhibition entry in the data set on Mus musculus [8] is “inactive”.
In turn, `CC[C@@H]([C@@H](CC(C)C)C(=O)N[C@H](C(=O)Nc1nccs1)C(C)(C)C)N(O)C=O` showed a half-maximal inhibitory concentration (IC50) in data set [1] of 200 nM. The Ki was 135 nM on Stromelysin-1 [2], 28 nM in [3], 16 nM on Interstitial collagenase and 16 nM in data set [4]. Also, the Inhibition in the data set on Mus musculus [5] is given as 52%.
Regarding `CC(C)C[C@@H](C(=O)N[C@H](C(=O)Nc1nccs1)C(C)C)[C@H](C)N(O)C=O`, the IC50 in [1] came out at 681 nM. Further, the Ki in data set [3] is 17 nM; at Interstitial collagenase it was 36 nM; in data set [4], 27 nM; at Stromelysin-1 [7], 120 nM. Besides, the Inhibition with Mus musculus [5] is reported as 61%.
As to `CC(C)C[C@@H](C(=O)N[C@H](C(N)=O)C(C)(C)C)[C@H](C)N(O)C=O`, the IC50 in data set [1] was determined as 3070 nM. Besides, the inhibition constant Ki in [3] is 33 nM; on Interstitial collagenase, 181 nM; in [4], 156 nM; on Stromelysin-1 [7], 406 nM.
`CC(C)C[C@@H](C(=O)N[C@H](C(=O)Nc1nccs1)C(C)(C)C)[C@H](C)N(O)C=O` gave an Inhibition in the data set on Mus musculus [9] of 60%. In data set [1], this compound came in with an IC50 of 245 nM. Also, the AUC – broadly, the area under the concentration-time curve, a measure of exposure – in data set [10] stood at 2100 ng·h/mL; in [13], 957 ng·h/mL. Besides, the values for the bioavailability in [11] and in data set [12] were 44% and 26%, respectively. For the same compound, the clearance – broadly, the volume of plasma or blood freed of the substance per unit of time – in data set [14] was determined as 62 mL/min/kg; in [15], 10 mL/min/kg. Moreover, the Ki turned out to be 34 nM in [3], 27 nM at Interstitial collagenase, 20 nM in [4] and 437 nM on Stromelysin-1 [7]. Also, the half-life (commonly how long it takes for the measured level to halve) was 2.8 h in data set [16] and 3.4 h in [19]. For the same compound, the Cmax (as a rule, the peak of the concentration-time curve) in [17] was 4530 ng/mL; in data set [18] it was 2330 ng/mL.
Regarding `CC(C)C[C@H](NC(=O)[C@H](CC(C)C)[C@H](C)N(O)C=O)C(=O)Nc1nccs1`, the inhibition entry in the data set on Mus musculus [20] is “inactive”. Moreover, the half-inhibitory concentration (IC50) in [1] worked out at 1690 nM. The Ki in data set [3] stood at 17 nM; at Interstitial collagenase, 97 nM; in data set [4] it was 55 nM; at Stromelysin-1 [7] it was 80 nM.
Compound `CC[C@@H]([C@@H](CC(C)C)C(=O)N[C@H](C(=O)Nc1ccccn1)C(C)(C)C)N(O)C=O` showed an IC50 in data set [1] of 304 nM. For the same compound, the Ki at Stromelysin-1 [2] is 153 nM; in [3] it was 89 nM; on Interstitial collagenase it was 47 nM; in [4] it was 29 nM. In the data set with Mus musculus [5], this compound came in with an Inhibition of 61%.
`CC(C)C[C@@H](C(=O)N[C@@H](CC(C)(C)C)C(=O)Nc1nccs1)[C@H](C)N(O)C=O`: the inhibition result in the data set on Mus musculus [20] was “inactive”. In addition, the midpoint of inhibition in data set [1], the IC50, lay at 3960 nM. Further, the Ki in data set [3] was 98 nM; at Interstitial collagenase, 170 nM; in data set [4], 64 nM; on Stromelysin-1 [7], 354 nM.
In [1], `CNC(=O)[C@@H](NC(=O)[C@H](CC(C)C)[C@H](C)N(O)C=O)C(C)(C)C` came in with an IC50 of 2950 nM. For the same compound, the Ki in data set [3] was 21 nM; on Interstitial collagenase, 17 nM; in data set [4] it was 142 nM; at Stromelysin-1 [7] it was 2320 nM.
In data set [1], `CC[C@H](C)C(NC(=O)[C@H](CC(C)C)[C@H](C)N(O)C=O)C(=O)Nc1nccs1` (single isomer, unassigned) displayed an IC50 of 270 nM. For the same compound, the inhibition constant (Ki) in data set [3] worked out at 29 nM; at Interstitial collagenase it was 41 nM; in data set [4], 20 nM; on Stromelysin-1 [7], 93 nM. Besides, the Inhibition in the data set on Mus musculus [5] is 48%.
In turn, `CC[C@H](C)[C@H](NC(=O)[C@H](CC(C)C)[C@H](CC)N(O)C=O)C(=O)Nc1nccs1` registered an IC50 in data set [1] of 92 nM. The Ki turned out to be 45 nM on Stromelysin-1 [2], 24 nM in data set [3], 42 nM on Interstitial collagenase and 11 nM in [4]. The compound also displayed an Inhibition with Mus musculus [5] of 48%.

For the origin of these results see ChEMBL document CHEMBL1133910, “N-hydroxyformamide peptidomimetics as TACE/matrix metalloprotease inhibitors: oral activity via P1' isobutyl substitution” (Bioorg Med Chem Lett, 2001).
